Source: patent US20150322067A1, “NITROGEN CONTAINING COMPOUNDS AND THEIR USE” (priority 2011, published 2015)
Read-outs that look alike come from different tables or passages of the source.

Assays:
Experiment in all cases: Agar dilution MIC (CLSI), beta-lactam with or without beta-lactamase inhibitor
Type in all cases: cell-based
A. baumanni NCTC 13301 = details: Class D ESBL strain; for MIC of Ceftazidime + inhibitor: Ceftazidime in combination with inhibitor at 4 mcg/ml; for MIC of Meropenem + inhibitor: Meropenem in combination with inhibitor at 4 mcg/ml
Method: (§1) The biological activity of representative compounds of the invention against various bacterial strains (in combination with another antibacterial agent) was investigated. In a typical study, overnight grown bacterial cultures were diluted appropriately and inoculated on the agar media containing doubling dilutions of the antibiotics. Observation for growth or no growth was performed after 16-20 hours of incubation at 35±2° C. in ambient air. The overall procedure was performed as per Clinical and Laboratory Standards Institute (CLSI) recommendations (Clinical and Laboratory Standards Institute (CLSI), performance Standards for Antimicrobial Susceptibility Testing, 20th Informational Supplement, M 100-S20, Volume 30, No. 1, 2010). Table 1 details potencies of ceftazidime in combination of representative compound according to the invention (compound of formula (I) wherein M is sodium) against various MDR (Multi Drug Resistant) Gram-negative strains producing Class A, C and D beta-lactamase enzymes. The activities are expressed as MICs (mcg/ml). For comparison, the activity of various other known beta-lactamase inhibitors such as clavulanic acid, tazobactam, MK-7655, and NXL-104 are also provided.
(§2) Table 2 details data corresponding to a combination of Meropenem with a compound of Formula (I), wherein M is sodium, against Class D ESBL producing strains. Class D ESBLs producing pathogens that confer a high degree of resistance to carbapenems are a therapeutic problem in the clinical settings since extremely limited treatment options are available to treat them.

A. baumanni NCTC 13304 = details: Class D ESBL strain; for MIC of Ceftazidime + inhibitor: Ceftazidime in combination with inhibitor at 4 mcg/ml; for MIC of Meropenem + inhibitor: Meropenem in combination with inhibitor at 4 mcg/ml
Method: as §1, §2

A. baumanni NCTC 13305 = details: Class D ESBL strain; for MIC of Ceftazidime + inhibitor: Ceftazidime in combination with inhibitor at 4 mcg/ml; for MIC of Meropenem + inhibitor: Meropenem in combination with inhibitor at 4 mcg/ml
Method: as §1, §2

E. coli NCTC 13352 = details: Class A ESBL strain; for MIC of Ceftazidime + inhibitor: Ceftazidime in combination with inhibitor at 4 mcg/ml
Method: as §1

E. coli M 50 = details: Class C ESBL strain; for MIC of Ceftazidime + inhibitor: Ceftazidime in combination with inhibitor at 4 mcg/ml
Method: as §1

E. coli B 89 = details: Class C ESBL strain; for MIC of Ceftazidime + inhibitor: Ceftazidime in combination with inhibitor at 4 mcg/ml
Method: as §1

E. coli NCTC 13351 = details: Class A ESBL strain; for MIC of Ceftazidime + inhibitor: Ceftazidime in combination with inhibitor at 4 mcg/ml
Method: as §1

E. coli 7 MP = details: Class C ESBL strain; for MIC of Ceftazidime + inhibitor: Ceftazidime in combination with inhibitor at 4 mcg/ml
Method: as §1

[1] = tested on: K. pneumoniae ATCC 700603; details: Class A ESBL strain; for MIC of Ceftazidime + inhibitor: Ceftazidime in combination with inhibitor at 4 mcg/ml
Method: as §1

[2] = Meropenem alone, read-out: MIC of Meropenem, Control
[3] = Ceftazidime alone, read-out: MIC of Ceftazidime, Control

Structure (SMILES) | MIC of Ceftazidime + inhibitor (A. baumanni NCTC 13301) [µg/mL] | MIC of Meropenem + inhibitor (A. baumanni NCTC 13301) [µg/mL] | MIC of Ceftazidime + inhibitor (A. baumanni NCTC 13304) [µg/mL] | MIC of Meropenem + inhibitor (A. baumanni NCTC 13304) [µg/mL] | MIC of Ceftazidime + inhibitor (A. baumanni NCTC 13305) [µg/mL] | MIC of Meropenem + inhibitor (A. baumanni NCTC 13305) [µg/mL] | MIC of Ceftazidime + inhibitor (E. coli NCTC 13352) [µg/mL] | MIC of Ceftazidime + inhibitor (E. coli M 50) [µg/mL] | MIC of Ceftazidime + inhibitor (E. coli B 89) [µg/mL] | MIC of Ceftazidime + inhibitor (E. coli NCTC 13351) [µg/mL] | MIC of Ceftazidime + inhibitor (E. coli 7 MP) [µg/mL] | MIC of Ceftazidime + inhibitor [1] [µg/mL] | other results
C[C@@H](O)[C@H]1C(=O)N2C(C(=O)O)=C(S[C@@H]3CN[C@H](C(=O)N(C)C)C3)[C@H](C)[C@H]12 [Meropenem] |  |  |  |  |  |  |  |  |  |  |  |  | MIC (A. baumanni NCTC 13301; [2]): 32 µg/mL; MIC (A. baumanni NCTC 13304; [2]): 32 µg/mL; MIC (A. baumanni NCTC 13305; [2]): 8 µg/mL
N#C[C@@H]1CC[C@@H]2CN1C(=O)N2OS(=O)(=O)[O-].[Na+] [Sodium salt of trans-7-oxo-6-(sulphoxy)-1,6-diazabicyclo[3.2.1]-octane-2-carbonitrile] | 32 | 4 | 32 | 2 | 16 | 2 | 0.5 | 1 | 1 | 0.5 | 2 | 0.5 | 
NC(=O)[C@@H]1CC[C@@H]2CN1C(=O)N2OS(=O)(=O)O [NXL104] | >32 | 16 | 32 | 16 | 16 | 8 | 0.5 | 1 | 1 | 0.5 | 4 | 0.5 | 
O=C(NC1CCNCC1)[C@@H]1CC[C@@H]2CN1C(=O)N2OS(=O)(=O)O [MK 7655] | >32 | 32 | 32 | 32 | 16 | 8 | 8 | 2 | 4 | 2 | 8 | 2 | 
O=C(O)[C@H]1/C(=C/CO)O[C@@H]2CC(=O)N21 [Clavulanic acid, clavulanic acid] | >32 | 32 | >32 | 32 | 16 | 8 | 0.5 | >32 | >32 | 0.5 | >32 | 0.5 | 
CC(C)(O/N=C(\C(=O)N[C@@H]1C(=O)N2C(C(=O)[O-])=C(C[n+]3ccccc3)CS[C@H]12)c1csc(N)n1)C(=O)O [Ceftazidime] |  |  |  |  |  |  |  |  |  |  |  |  | MIC (A. baumanni NCTC 13301; [3]): > 32 µg/mL; MIC (A. baumanni NCTC 13304; [3]): > 32 µg/mL; MIC (A. baumanni NCTC 13305; [3]): 16 µg/mL; MIC (E. coli NCTC 13352; Escherichia coli, NCTC13352, Ceftazidime alone, read-out: MIC of Ceftazidime, Control): > 32 µg/mL; MIC (E. coli M 50; Escherichia coli, M50, Ceftazidime alone, read-out: MIC of Ceftazidime, Control): > 32 µg/mL; MIC (E. coli B 89; Escherichia coli, B89, Ceftazidime alone, read-out: MIC of Ceftazidime, Control): > 32 µg/mL; MIC (E. coli NCTC 13351; Escherichia coli, NCTC13351, Ceftazidime alone, read-out: MIC of Ceftazidime, Control): 32 µg/mL; MIC (E. coli 7 MP; Escherichia coli, 7MP, Ceftazidime alone, read-out: MIC of Ceftazidime, Control): > 32 µg/mL; MIC ([1]; Klebsiella pneumoniae, ATCC700603, Ceftazidime alone, read-out: MIC of Ceftazidime, Control): 32 µg/mL
C[C@]1(Cn2ccnn2)[C@H](C(=O)O)N2C(=O)C[C@H]2S1(=O)=O [Tazobactam, tazobactam] | >32 | 32 | >32 | 32 | 16 | 8 | 1 | >32 | >32 | 0.5 | >32 | 1 | 
